One molecule from patent US20170334919A1, “2-((4-AMINO-3-(3-FLUORO-5-HYDROXYPHENYL)-1H-PYRAZOLO[3,4-D]PYRIMIDIN-1 -YL)METHYL)-3-(2-(TRIFLUORO-MET HYL)BENZYL)QUINAZOLIN-4(3H)-ONE DERIVATIVES AND THEIR USE AS PHOSPHOINOSITIDE 3-KINASE INHIBITORS” (RESPIVERT LTD., priority 2013, published 2017) can be followed below.

Assay [1] deals with PI3K δ (Akt phosphorylation in d-U937 cells). As to the kind of experiment: PI3K δ cell based assay: H2O2-induced Akt phosphorylation in d-U937 cells. The following applies: Homo sapiens, dU937; inhibition of induced Akt phosphorylation; read-out: Cellular Activity REC50 values in d-U937 cells, H2O2 stimulus. The procedure: As a means of assessing PI3K δ activation in response to stimuli, the phosphorylation status of the protein, Akt, a downstream product of PI3Kδ, signaling was determined.
U937 cells, obtained from a human, leukemic, monocyte lymphoma cell line, were differentiated to macrophage-type cells by incubation with PMA (100 ng/mL) for 48 to 72 hr. Cells were then pre-incubated with either the test compound or vehicle for 2 hr and were then stimulated briefly by exposure to H2O2 (10 mM, 5-7 min) and the reaction stopped by replacing the media with 4% formaldehyde solution. […] After washing with buffer (PBS containing 0.1% Triton X-100), cells were incubated with an HRP-conjugated secondary antibody (Dako) and the resultant signal was determined colorimetrically (OD: 450 nm with a reference wavelength of 655 nm) using TMB substrate (substrate reagent pack supplied by R&D Systems, Inc.).
This reaction was stopped by the addition of H2SO4 solution (100 μL). […] After washing with buffer (PBS containing 0.1% Triton X-100) 1% SDS (100 μL) was added to each well and the plates were shaken lightly for 1 hr prior to measuring the absorbance at 595 nm (Varioskan® Flash, Thermo-Fisher Scientific). The measured OD450-655 readings were corrected for cell number by dividing the OD450-655 by the D595 readings. The ratio of pAkt signal to total Akt signal was used to quantitate the extent of PI3K δ activation. […]

The subject of another assay is IFNγ-primed U937 cells. Nature of the assay: Superoxide anion production assay (zymosan-induced ROS). Type of assay: cell-based. The note with it: Homo sapiens, U-937; read-out: REC50, Zymosan-induced ROS production in IFNγ-primed U937 cells. The procedure: As a means of assessing PI3Kδ dependent cell function, superoxide anion production in IFNγ-primed U937 cells was evaluated by a chemiluminescence assay. The U937 cells (purchased from ATCC, Manassas, Va.) were maintained in RPMI 1640 (Invitrogen Ltd., Paisley, UK) with 10% FCS at 37° C. The cells were suspended at a density of 10^7cells/mL in 40 mL 10% FCS RPMI 1640, and treated with 20 μL of 100 μg/mL IFNγ solution (final concentration: 50 ng/mL), and incubated at 37° C., 5% CO2 for 4 days.
IFNγ-primed U937 cells were seeded at 0.2×10^6 cells/well in a 96-well plate, and pre-incubated with test compounds for 2 hr in starvation media (0.5% FCS RPMI1640-phenol red free). Zymosan A (10 mg) from Saccharomyses cerevisiae (ex Sigma-Aldlich) was resuspended in 1 mL of 150 mM NaCl and boiled at 100° C. for 15 min. After boiling, Zymosan particles were washed with 1 mL of PBS twice, and incubated with 0.5 mL of BioParticles™ opsonized reagents (Life technologies) for 60 min at 37° C. […] Chemiluminescence indicating released superoxide anion was measured every 15 min up to 60 min by luminometric measurement (Varioskan® Flash, Thermo-Fisher Scientific).
The data at 60 min after incubation was used for analysis. […] The relative EC50 values were calculated from the concentration-response curves generated by the serial dilutions of the test compounds using XL-Fit (idbs, Guildford, UK).

A further assay concerns THP1 cells. Nature of the assay: Chemotaxis to MCP1. The note with it: Homo sapiens, THP-1; read-out: REC50, THP1 cell chemotaxis to MCP1. Type of assay: cell-based. The procedure: As a means of assessing PI3K γ dependent cell function, THP1 cell chemotaxis to MCP-1 was evaluated using a 48 well-chemotaxis chamber. THP1 cells from a human leukemic monocyte lymphoma cell line, (purchased from ATCC Manassas, Va.) were maintained in RPMI 1640 (Invitrogen Ltd., Paisley, UK) with 10% FCS at 37° C. Cells were re-suspended in 0.5% BSA/RPM11640 (2×10^6 cells/mL) and incubated for 10 min at 37° C., 5% CO2. Cell suspension aliquots (500 μL) were then treated either with compounds in neat DMSO or with DMSO as vehicle (2.5 μL) for 1hr (37° C., 5% CO2).
MCP1 (50 nM) was prepared in 0.5% BSA/RPM11640. MCP1 solution (50 μL) was added to each well in the bottom plate of a 48-well chemotaxis chamber (AP48, NeuroProbe Inc., Gaithersburg, Md.). A polycarbonate membrane (8 μm) was mounted on the bottom chamber, and then the top plate was mounted on the bottom chamber and filter membrane. […]
A solution of MTT (50 μL) in 10% FCS phenol red-free RPM11640 was added to each well, and the plate was incubated for 2 hr (37° C., 5% CO2). Neat DMSO (100 μL) was added to each well to extract formazan formed from MTT and the plates were shaken lightly for 1 hr prior to measuring the absorbance at 595 nm (Varioskan® Flash, Thermo-Fisher Scientific). […] Relative EC50 values were determined from concentration-inhibition curves using XL-Fit (idbs, Guildford, UK).

Each structure is given as a SMILES string.

Turning to `COCCOCCOCC#Cc1cccc2nc(Cn3nc(-c4cc(O)cc(F)c4)c4c(N)ncnc43)n(Cc3ccccc3C(F)(F)F)c(=O)c12` [Compound (I), 2-((4-Amino-3-(3-fluoro-5-hydroxyphenyl)-1H-pyrazolo[3,4-d]pyrimidin-1-yl)methyl)-5-(3-(2-(2-methoxyethoxy)ethoxy)prop-1-yn-1-yl)-3-(2-(trifluoromethyl)benzyl)quinazolin-4(3H)-one], the EC50 in assay [1] came out at 0.0074 µM; in the assay on IFNγ-primed U937 cells it was 0.0118 µM; with THP1 cells, 0.0339 µM.
